From publication PMC11915366 (ACS infectious diseases, 2025)

Assays:
[1] = tested on: E. coli DH5αZ1 expressing TetX7 or Tet50 from pZE24 plasmid; test: MIC by microbroth dilution, inhibitor alone or with fixed 8 μg/mL TC; assay type: cell-based; settings: fixed TC concentration of 8 μg/mL; inhibitor concentration needed to rescue TC activity
[2] = tested on: E. coli DH5αZ1+pZE24; test: Checkerboard FICI, E. coli DH5αZ1+pZE24; assay type: cell-based; settings: combination with Tetracycline; E. coli DH5αZ1+pZE24 (empty vector)
[3] = tested on: E. coli DH5αZ1+pZE24-TetX7; test: Checkerboard FICI, E. coli DH5αZ1+pZE24-TetX7; assay type: cell-based; settings: combination with Tetracycline
[4] = tested on: E. coli DH5αZ1+pZE24-Tet50; test: Checkerboard FICI, E. coli DH5αZ1+pZE24-Tet50; assay type: cell-based; settings: combination with Tetracycline
[5] = tested on: E. coli DH5αZ1; test: Checkerboard FICI, E. coli DH5αZ1; assay type: cell-based
[6] = tested on: P. aeruginosa PA 27853; test: Checkerboard FICI, P. aeruginosa PA 27853; assay type: cell-based
[7] = tested on: P. aeruginosa Pa-3; test: Checkerboard FICI, P. aeruginosa Pa-3; assay type: cell-based
[8] = tested on: M. smegmatis mc^2155; test: Checkerboard FICI, M. smegmatis mc^2155 expressing TetX-HA; assay type: cell-based; settings: combination with Tetracycline
[9] = target: TetX7 (Pseudomonas aeruginosa, UniProt Q7X2A0); test: Apparent steady-state kinetics of NADPH consumption; assay type: biochemical; settings: increasing inhibitor concentration, A340
[10] = tested on: E. coli DH5αZ1 expressing TetX7 or Tet50 from pZE24 plasmid; settings: E. coli expressing TetX7 and Tet50; cited from earlier work
[11] = tested on: human red blood cells; assay type: cell-based; settings: concentrations up to 500 μM (~250 μg/mL); 1 hour at 37 °C
[12] = target: T1, Tet50 (Unknown prokaryotic organism, UniProt A0A059WYP6); settings: Tet(50); cited from earlier work
T1 sequence (A0A059WYP6 1-388): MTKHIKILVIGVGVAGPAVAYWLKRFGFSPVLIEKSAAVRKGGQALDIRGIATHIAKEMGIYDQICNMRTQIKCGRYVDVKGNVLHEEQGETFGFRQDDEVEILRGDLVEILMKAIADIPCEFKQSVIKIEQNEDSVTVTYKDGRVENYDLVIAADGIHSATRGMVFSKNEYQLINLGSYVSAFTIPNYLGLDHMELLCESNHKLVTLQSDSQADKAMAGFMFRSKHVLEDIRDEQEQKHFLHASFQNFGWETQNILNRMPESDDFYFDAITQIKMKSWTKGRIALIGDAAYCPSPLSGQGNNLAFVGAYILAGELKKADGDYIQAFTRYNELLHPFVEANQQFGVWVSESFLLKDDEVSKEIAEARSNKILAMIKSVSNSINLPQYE

[13] = assay type: in vitro ADME; settings: E. coli cell lysate, 37 °C; LC-MS (A405 for acetate control)
[14] = combination with Tetracycline, P. aeruginosa PA 27853
[15] = combination with Tetracycline, P. aeruginosa PA 27853 (control lacking TetX7)
[16] = combination with Tigecycline, P. aeruginosa PA 27853

TetX7, sequence (Q7X2A0 1-378): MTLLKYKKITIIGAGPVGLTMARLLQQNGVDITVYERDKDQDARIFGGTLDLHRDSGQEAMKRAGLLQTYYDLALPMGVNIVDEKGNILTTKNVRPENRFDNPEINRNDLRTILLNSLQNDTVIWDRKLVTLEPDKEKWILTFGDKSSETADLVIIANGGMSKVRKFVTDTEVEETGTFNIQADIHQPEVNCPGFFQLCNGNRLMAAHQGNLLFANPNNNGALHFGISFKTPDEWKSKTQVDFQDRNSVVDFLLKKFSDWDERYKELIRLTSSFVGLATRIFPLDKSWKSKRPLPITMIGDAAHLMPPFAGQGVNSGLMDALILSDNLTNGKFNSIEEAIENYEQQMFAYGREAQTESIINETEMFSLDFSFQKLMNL

Structure (SMILES) | MIC of inhibitor combined with TC [1] [µg/mL] | Effect [2] | FICI [2] | Effect [3] | FICI [3] | Effect [4] | FICI [4] | Effect ([5]; combination with Tetracycline) | Effect ([5]; combination with Tigecycline) | FICI ([5]; combination with Tigecycline) | Effect [6, 14] | FICI [6, 15] | Effect [6, 16] | FICI [6, 16] | Effect ([7]; combination with Tetracycline) | Effect ([7]; combination with Tigecycline) | Effect [8] | FICI [8] | FICI ([5]; combination with Tetracycline) | further results
Cc1c2c(c(O)c3c(OC(=O)c4ccccn4)cccc13)C(=O)[C@]1(O)C(=O)C(C(N)=O)=C(O)[C@@H](N(C)C)[C@@H]1C2 [Inhibitor 7] | 2 | Indifferent | 1.125 | Additive | 0.625 | Additive | 0.625 | Additive | Indifferent | >1 | Indifferent | >1 | Indifferent | >1 | Indifferent | Synergetic | Additive/Indifferent | 0.75–1 |  | 
Cc1c2c(c(O)c3c(OC(=O)c4cccnc4)cccc13)C(=O)[C@]1(O)C(=O)C(C(N)=O)=C(O)[C@@H](N(C)C)[C@@H]1C2 [Inhibitor 8] | 4 | Indifferent | 1 | Synergetic | 0.375 | Synergetic | 0.265 | Indifferent | Indifferent | >1 | Indifferent | >1 | Indifferent | >1 | Indifferent | Additive | Additive/Indifferent | 0.75–1 | >1 | Vmax of NADPH consumption [9]: 0.05 ± 0.02 min⁻¹
CN(C)[C@@H]1C(O)=C(C(N)=O)C(=O)[C@@]2(O)C(O)=C3C(=O)c4c(O)cccc4[C@@](C)(O)[C@H]3C[C@@H]12 [TC, tetracycline] |  |  |  |  |  |  |  |  |  |  |  |  |  |  |  |  |  |  |  | MIC of TC [10]: > 8 µg/mL
Cc1c2c(c(O)c3c(O)cccc13)C(=O)[C@]1(O)C(=O)C(C(N)=O)=C(O)[C@@H](N(C)C)[C@@H]1C2 [aTC, anhydrotetracycline, reference compound] |  |  |  |  |  |  |  | Indifferent | Indifferent | >1 | Additive |  | Additive |  | Synergetic | Synergetic | Indifferent | 1 | >1 | Hemolysis [11]: No hemolysis; Kapp of NADPH consumption [12]: 2.0 ± 0.3 µM
CC(=O)Oc1ccc([N+](=O)[O-])cc1 [p-NO2-phenyl acetate] |  |  |  |  |  |  |  |  |  |  |  |  |  |  |  |  |  |  |  | Stability toward hydrolysis in cell lysate [13]: time- and lysate-dependent increase in A405
